Experimental data published in the NIST ThermoML archive (doi:10.1016/j.jct.2015.09.022).

Test: xn = mol fraction of the nth substance listed
Settings: 100.7 kPa, Liquid; for viscosity: Falling or rolling sphere viscometry; for speed of sound: Frequency=3 MHz, Sing-around technique in a fixed-path interferometer; for mass density: Vibrating tube method

CCCC[n+]1ccn(C)c1.O=S(=O)([N-]S(=O)(=O)C(F)(F)F)C(F)(F)F + CCCCOC(C)=O
Settings	mass density [kg/m3]	speed of sound [m/s]	viscosity [mPa·s]
298.15 K, x1 = 0.0252	–	1187.2	–
298.15 K, x1 = 0.0521	–	1185.1	–
298.15 K, x1 = 0.0754	–	1183.4	–
298.15 K, x1 = 0.11	1002.7	1182	1.65
298.15 K, x1 = 0.2089	1091.17	1182.3	3.16
298.15 K, x1 = 0.2993	1157.05	1184.9	5.48
298.15 K, x1 = 0.393	1214.08	1189	8.7
298.15 K, x1 = 0.4847	1261.35	1194	13
298.15 K, x1 = 0.5739	1300.9	1199.2	18.01
298.15 K, x1 = 0.687	1344.53	1206.6	25.24
298.15 K, x1 = 0.7791	1375.41	1212.7	31.73
298.15 K, x1 = 0.9056	1412.56	1221.6	41.39
298.15 K, x1 = 1	1436.82	1227.8	50.04
303.15 K, x1 = 0.0252	–	1167.5	–
303.15 K, x1 = 0.0521	–	1165.2	–
303.15 K, x1 = 0.0754	–	1164.2	–
303.15 K, x1 = 0.11	997.7	1163.8	1.32
303.15 K, x1 = 0.2089	1086.13	1165.8	2.47
303.15 K, x1 = 0.2993	1152.05	1169.6	4.19
303.15 K, x1 = 0.393	1209.12	1174.7	6.7
303.15 K, x1 = 0.4847	1256.55	1180.5	10
303.15 K, x1 = 0.5739	1296	1186.3	13.81
303.15 K, x1 = 0.687	1339.68	1194.3	19.35
303.15 K, x1 = 0.7791	1370.57	1201.8	25.04
303.15 K, x1 = 0.9056	1407.82	1211.6	33.3
303.15 K, x1 = 1	1431.98	1217.5	40.72
308.15 K, x1 = 0.0252	–	1147.2	–
308.15 K, x1 = 0.0521	–	1146.7	–
308.15 K, x1 = 0.0754	–	1146.3	–
308.15 K, x1 = 0.11	992.65	1145.8	1.08
308.15 K, x1 = 0.2089	1081.08	1149.4	2
308.15 K, x1 = 0.2993	1147.06	1154.5	3.3
308.15 K, x1 = 0.393	1204.12	1160.6	5.35
308.15 K, x1 = 0.4847	1251.44	1167.2	7.85
308.15 K, x1 = 0.5739	1291.12	1173.6	10.8
308.15 K, x1 = 0.687	1335.03	1182.2	15.26
308.15 K, x1 = 0.7791	1365.95	1189.1	20
308.15 K, x1 = 0.9056	1403.1	1199.2	27.56
308.15 K, x1 = 1	1427.16	1205.2	33.73
313.15 K, x1 = 0.0252	–	1128.5	–
313.15 K, x1 = 0.0521	–	1127	–
313.15 K, x1 = 0.0754	–	1127.2	–
313.15 K, x1 = 0.11	987.68	1127.8	0.96
313.15 K, x1 = 0.2089	1076.25	1133.2	1.72
313.15 K, x1 = 0.2993	1142.16	1139.5	2.81
313.15 K, x1 = 0.393	1199.24	1146.2	4.65
313.15 K, x1 = 0.4847	1246.74	1153.9	6.64
313.15 K, x1 = 0.5739	1286.33	1161	8.59
313.15 K, x1 = 0.687	1330.2	1170.2	12.16
313.15 K, x1 = 0.7791	1361.33	1178.5	15.96
313.15 K, x1 = 0.9056	1398.49	1188.4	22.61
313.15 K, x1 = 1	1422.37	1194.4	28.28
318.15 K, x1 = 0.0252	–	1108.2	–
318.15 K, x1 = 0.0521	–	1109.2	–
318.15 K, x1 = 0.0754	–	1109.6	–
318.15 K, x1 = 0.11	982.52	1110	0.8
318.15 K, x1 = 0.2089	1071.24	1117.1	1.49
318.15 K, x1 = 0.2993	1137.09	1124.6	2.35
318.15 K, x1 = 0.393	1194.31	1132	3.96
318.15 K, x1 = 0.4847	1241.85	1140.8	5.5
318.15 K, x1 = 0.5739	1281.71	1148.4	6.92
318.15 K, x1 = 0.687	1325.49	1159.3	9.96
318.15 K, x1 = 0.7791	1356.79	1168	13.17
318.15 K, x1 = 0.9056	1393.84	1178.5	18.87
318.15 K, x1 = 1	1417.6	1184.5	24.01
323.15 K, x1 = 0.0252	–	1089.6	–
323.15 K, x1 = 0.0521	–	1090.2	–
323.15 K, x1 = 0.0754	–	1091.3	–
323.15 K, x1 = 0.11	977.62	1092.3	0.83
323.15 K, x1 = 0.2089	1066.34	1101.2	1.37
323.15 K, x1 = 0.2993	1132.21	1109.9	2
323.15 K, x1 = 0.393	1189.38	1118.7	2.93
323.15 K, x1 = 0.4847	1236.98	1127.9	4.14
323.15 K, x1 = 0.5739	1276.92	1136	5.48
323.15 K, x1 = 0.687	1320.8	1147.5	8.24
323.15 K, x1 = 0.7791	1352.11	1155.7	10.74
323.15 K, x1 = 0.9056	1389.18	1166.3	15.82
323.15 K, x1 = 1	1412.86	1171.3	20.32

CCCCN [1-butanamine] + CCCC[n+]1ccn(C)c1.O=S(=O)([N-]S(=O)(=O)C(F)(F)F)C(F)(F)F
Settings	mass density [kg/m3]	speed of sound [m/s]	viscosity [mPa·s]
298.15 K, x2 = 0	733.33	1246.5	0.47
298.15 K, x2 = 0.0261	–	1234	–
298.15 K, x2 = 0.0486	–	1225.4	–
298.15 K, x2 = 0.0804	–	1216.5	–
298.15 K, x2 = 0.1026	916.12	1211.6	2.11
298.15 K, x2 = 0.2026	1042.14	1203.5	4.44
298.15 K, x2 = 0.3004	1134.03	1203.2	7.22
298.15 K, x2 = 0.4056	1209.89	1205.1	11.01
298.15 K, x2 = 0.5051	1266.69	1208	14.99
298.15 K, x2 = 0.6119	1316.23	1212	20.24
298.15 K, x2 = 0.7025	1351.49	1215.1	25.4
298.15 K, x2 = 0.8002	1383.95	1218.1	32.04
298.15 K, x2 = 0.9015	1412.83	1222.9	40.3
303.15 K, x2 = 0	728.5	1223.9	0.44
303.15 K, x2 = 0.0261	–	1212.2	–
303.15 K, x2 = 0.0486	–	1204.5	–
303.15 K, x2 = 0.0804	–	1196.3	–
303.15 K, x2 = 0.1026	911.59	1192.1	1.59
303.15 K, x2 = 0.2026	1037.64	1186.4	3.23
303.15 K, x2 = 0.3004	1129.36	1187.1	5.31
303.15 K, x2 = 0.4056	1205.12	1190	8.35
303.15 K, x2 = 0.5051	1262.02	1193.8	11.71
303.15 K, x2 = 0.6119	1311.69	1198.9	16.01
303.15 K, x2 = 0.7025	1346.8	1203	20.08
303.15 K, x2 = 0.8002	1379.23	1208	25.55
303.15 K, x2 = 0.9015	1408.07	1212.9	32.07
308.15 K, x2 = 0	723.67	1201.3	0.41
308.15 K, x2 = 0.0261	–	1190.3	–
308.15 K, x2 = 0.0486	–	1183.5	–
308.15 K, x2 = 0.0804	–	1177.2	–
308.15 K, x2 = 0.1026	907.02	1174.1	1.31
308.15 K, x2 = 0.2026	1033.16	1169	2.63
308.15 K, x2 = 0.3004	1124.87	1170.3	4.2
308.15 K, x2 = 0.4056	1200.55	1174.5	6.58
308.15 K, x2 = 0.5051	1257.23	1178.9	9.28
308.15 K, x2 = 0.6119	1306.91	1184.8	12.71
308.15 K, x2 = 0.7025	1342.12	1189.6	16.01
308.15 K, x2 = 0.8002	1374.49	1195.6	20.49
308.15 K, x2 = 0.9015	1403.3	1200.9	26.13
313.15 K, x2 = 0	718.66	1178.7	0.39
313.15 K, x2 = 0.0261	–	1169.5	–
313.15 K, x2 = 0.0486	–	1163.2	–
313.15 K, x2 = 0.0804	–	1157.5	–
313.15 K, x2 = 0.1026	902.44	1155	1.1
313.15 K, x2 = 0.2026	1028.65	1152.5	1.99
313.15 K, x2 = 0.3004	1120.14	1155.1	3.21
313.15 K, x2 = 0.4056	1195.66	1160	4.98
313.15 K, x2 = 0.5051	1252.53	1165.2	7.11
313.15 K, x2 = 0.6119	1302.05	1171.9	9.9
313.15 K, x2 = 0.7025	1337.26	1177.8	12.8
313.15 K, x2 = 0.8002	1369.77	1184.5	16.65
313.15 K, x2 = 0.9015	1398.51	1190.5	21.62
318.15 K, x2 = 0	714.1	1156.2	0.37
318.15 K, x2 = 0.0261	–	1148.2	–
318.15 K, x2 = 0.0486	–	1143.2	–
318.15 K, x2 = 0.0804	–	1138.2	–
318.15 K, x2 = 0.1026	898.17	1137.8	0.87
318.15 K, x2 = 0.2026	1024.27	1137.2	1.57
318.15 K, x2 = 0.3004	1115.68	1141.4	2.53
318.15 K, x2 = 0.4056	1191.05	1146.8	3.95
318.15 K, x2 = 0.5051	1247.99	1152.5	5.65
318.15 K, x2 = 0.6119	1297.45	1160	7.95
318.15 K, x2 = 0.7025	1332.6	1167	10.45
318.15 K, x2 = 0.8002	1364.99	1174.2	13.75
318.15 K, x2 = 0.9015	1393.75	1180.5	17.99
323.15 K, x2 = 0	709.21	1133.5	0.35
323.15 K, x2 = 0.0261	–	1126.2	–
323.15 K, x2 = 0.0486	–	1121.5	–
323.15 K, x2 = 0.0804	–	1117.8	–
323.15 K, x2 = 0.1026	893.96	1118.6	0.74
323.15 K, x2 = 0.2026	1019.8	1119	1.32
323.15 K, x2 = 0.3004	1110.93	1124.5	2.09
323.15 K, x2 = 0.4056	1186.44	1130.6	3.26
323.15 K, x2 = 0.5051	1243.22	1137.2	4.64
323.15 K, x2 = 0.6119	1292.55	1145.6	6.49
323.15 K, x2 = 0.7025	1327.75	1153	8.48
323.15 K, x2 = 0.8002	1360.33	1161.3	11.32
323.15 K, x2 = 0.9015	1389.17	1168.3	14.91
